Measurements from patent US11649255B2, “Indazoles as hematopoietic progenitor kinase 1 (HPK1) inhibitors and methods using same” (1st Biotherapeutics, Inc., priority 2020, dated 2023).
pIC50: −log10 of the molar value.

Target: recombinant human HPK1 (Homo sapiens (Human), UniProt Q92918)
Test: HPK1 kinase assay (ADP-Glo)
Assay type: biochemical
Settings: 25 μM ATP, MBP substrate
Method in brief: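 Activity was read as ADP formed, detected by ADP-Glo luminescence after the reaction of 5 ng recombinant human HPK1 with MBP and ATP (stocks 0.5 μg/μl and 25 μM) for 40 min at 30 °C. Buffer was Tris pH 7.5 with MgCl2, BSA and DTT, with compound in 0.5% DMSO. IC50 came from inhibition curves.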

Chain of recombinant human HPK1 (Q92918 whole entry): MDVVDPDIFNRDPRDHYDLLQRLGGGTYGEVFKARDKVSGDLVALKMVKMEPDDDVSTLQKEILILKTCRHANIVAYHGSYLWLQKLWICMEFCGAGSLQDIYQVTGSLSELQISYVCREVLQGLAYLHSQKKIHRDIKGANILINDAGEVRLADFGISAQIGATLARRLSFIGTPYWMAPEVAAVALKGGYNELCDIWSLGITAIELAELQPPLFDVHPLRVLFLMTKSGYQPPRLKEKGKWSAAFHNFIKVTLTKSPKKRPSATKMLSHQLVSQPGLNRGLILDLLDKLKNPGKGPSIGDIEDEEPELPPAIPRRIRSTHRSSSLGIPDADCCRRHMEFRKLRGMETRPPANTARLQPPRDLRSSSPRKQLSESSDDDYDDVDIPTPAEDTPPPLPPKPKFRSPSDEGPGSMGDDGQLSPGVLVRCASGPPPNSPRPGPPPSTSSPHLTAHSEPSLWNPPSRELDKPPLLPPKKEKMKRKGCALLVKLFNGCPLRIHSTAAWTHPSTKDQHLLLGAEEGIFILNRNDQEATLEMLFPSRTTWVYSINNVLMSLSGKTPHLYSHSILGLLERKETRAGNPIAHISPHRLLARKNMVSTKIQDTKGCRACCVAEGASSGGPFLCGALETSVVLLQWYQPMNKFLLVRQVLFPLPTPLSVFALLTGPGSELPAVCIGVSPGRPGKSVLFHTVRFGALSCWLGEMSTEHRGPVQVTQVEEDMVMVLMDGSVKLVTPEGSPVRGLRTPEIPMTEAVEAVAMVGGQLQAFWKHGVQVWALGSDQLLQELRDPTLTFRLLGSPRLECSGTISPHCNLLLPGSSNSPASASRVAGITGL

| Compound | pIC50 |
| --- | --- |
| Cc1c(F)c(C(F)(F)F)c2[nH]ncc2c1-c1ccc2nc(NC(=O)[C@@H]3C[C@@H]3F)cn2c1 [Example 263, (1S,2S)-2-fluoro-N-(6-(6-fluoro-5-methyl-7-(trifluoromethyl)-1H-indazol-4-yl)imidazo[1,2-a]pyridin-2-yl)cyclopropane-1-carboxamide] | > 7.00 |
| C=Cc1cc(C)c(-c2ccc3nc(NC(=O)[C@@H]4C[C@@H]4F)cn3c2)c2cn[nH]c12 [Example 264, (1S,2S)-2-fluoro-N-(6-(5-methyl-7-vinyl-1H-indazol-4-yl)imidazo[1,2-a]pyridin-2-yl)cyclopropane-1-carboxamide] | > 7.00 |
| CNc1c(F)c(Cl)c(-c2ccc3nc(NC(=O)[C@@H]4C[C@@H]4F)cn3c2)c2cn[nH]c12 [Example 265, (1S,2S)-N-(6-(5-chloro-6-fluoro-7-(methylamino)-1H-indazol-4-yl)imidazo[1,2-a]pyridin-2-yl)-2-fluorocyclopropane-1-carboxamide] | > 7.00 |
| CSc1c(F)c(Cl)c(-c2ccc3nc(NC(=O)[C@@H]4C[C@@H]4F)cn3c2)c2cn[nH]c12 [Example 266, (1S,2S)-N-(6-(5-chloro-6-fluoro-7-(methylthio)-1H-indazol-4-yl)imidazo[1,2-a]pyridin-2-yl)-2-fluorocyclopropane-1-carboxamide] | > 7.00 |
| CS(=O)(=O)c1c(F)c(Cl)c(-c2ccc3nc(NC(=O)[C@@H]4C[C@@H]4F)cn3c2)c2cn[nH]c12 [Example 267, (1S,2S)-N-(6-(5-chloro-6-fluoro-7-(methylsulfonyl)-1H-indazol-4-yl)imidazo[1,2-a]pyridin-2-yl)-2-fluorocyclopropane-1-carboxamide] | 6.30 to 7.00 |
| Cc1c(F)c(Br)c2[nH]ncc2c1-c1ccc2nc(NC(=O)[C@@H]3C[C@@H]3F)cn2c1 [Example 268, (1S,2S)-N-(6-(7-bromo-6-fluoro-5-methyl-1H-indazol-4-yl)imidazo[1,2-a]pyridin-2-yl)-2-fluorocyclopropane-1-carboxamide] | > 7.00 |
| CSc1c(F)c(C)c(-c2ccc3nc(NC(=O)[C@@H]4C[C@@H]4F)cn3c2)c2cn[nH]c12 [Example 269, (1S,2S)-2-fluoro-N-(6-(6-fluoro-5-methyl-7-(methylthio)-1H-indazol-4-yl)imidazo[1,2-a]pyridin-2-yl)cyclopropane-1-carboxamide] | > 7.00 |
| Cc1c(F)c(S(C)(=O)=O)c2[nH]ncc2c1-c1ccc2nc(NC(=O)[C@@H]3C[C@@H]3F)cn2c1 [Example 270, (1S,2S)-2-fluoro-N-(6-(6-fluoro-5-methyl-7-(methylsulfonyl)-1H-indazol-4-yl)imidazo[1,2-a]pyridin-2-yl)cyclopropane-1-carboxamide] | 6.30 to 7.00 |
| COc1c(F)c(C)c(-c2ccc3nc(NC(=O)[C@@H]4C[C@@H]4F)cn3c2)c2cn[nH]c12 [Example 271, (1S,2S)-2-fluoro-N-(6-(6-fluoro-7-methoxy-5-methyl-1H-indazol-4-yl)imidazo[1,2-a]pyridin-2-yl)cyclopropane-1-carboxamide] | > 7.00 |
| COc1c(F)c(Cl)c(-c2ccc3nc(NC(=O)[C@@H]4C[C@@H]4F)cn3c2)c2cn[nH]c12 [Example 272, (1S,2S)-N-(6-(5-chloro-6-fluoro-7-methoxy-1H-indazol-4-yl)imidazo[1,2-a]pyridin-2-yl)-2-fluorocyclopropane-1-carboxamide] | > 7.00 |
| Cc1c(F)c(N(C)C)c2[nH]ncc2c1-c1ccc2nc(NC(=O)[C@@H]3C[C@@H]3F)cn2c1 [Example 273, (1S,2S)-N-(6-(7-(dimethylamino)-6-fluoro-5-methyl-1H-indazol-4-yl)imidazo[1,2-a]pyridin-2-yl)-2-fluorocyclopropane-1-carboxamide] | > 7.00 |
| C=CC(=O)Nc1cc(C)c(-c2ccc3nc(NC(=O)[C@@H]4C[C@@H]4F)cn3c2)c2cn[nH]c12 [Example 274, (1S,2S)-N-(6-(7-acrylamido-5-methyl-1H-indazol-4-yl)imidazo[1,2-a]pyridin-2-yl)-2-fluorocyclopropane-1-carboxamide] | > 7.00 |
